Measurements published in paper PMC10709440, “High-throughput ligand profile characterization in novel cell lines expressing seven heterologous insect olfactory receptors for the detection of volatile plant biomarkers” (Scientific Reports, 2023).

Legend:
Drosophila OR47a = biological target: T1, Drosophila OR47a (Drosophila melanogaster, UniProt P81921); experiment: Calcium ion fluorescence (GCaMP6) assay, OR47a stable HEK293 cell line; type: cell-based; details: for OR47a response (VUAA1-normalized) at 1 μM / OR47a response (VUAA1-normalized) at 10 μM / OR47a response (VUAA1-normalized) at 100 μM / Average response: OR47a cell line; for OR47a response (VUAA1-normalized) at 1 μM: VOC concentration 1 μM; for OR47a response (VUAA1-normalized) at 10 μM: VOC concentration 10 μM; for OR47a response (VUAA1-normalized) at 100 μM: VOC concentration 100 μM; for Average response: mean of biological replicates; for DF norm AVERAGE OR47a: threshold 0.05, below shown as 0
T1 construct: expressed in transfected cells
T1 sequence (P81921 1-385): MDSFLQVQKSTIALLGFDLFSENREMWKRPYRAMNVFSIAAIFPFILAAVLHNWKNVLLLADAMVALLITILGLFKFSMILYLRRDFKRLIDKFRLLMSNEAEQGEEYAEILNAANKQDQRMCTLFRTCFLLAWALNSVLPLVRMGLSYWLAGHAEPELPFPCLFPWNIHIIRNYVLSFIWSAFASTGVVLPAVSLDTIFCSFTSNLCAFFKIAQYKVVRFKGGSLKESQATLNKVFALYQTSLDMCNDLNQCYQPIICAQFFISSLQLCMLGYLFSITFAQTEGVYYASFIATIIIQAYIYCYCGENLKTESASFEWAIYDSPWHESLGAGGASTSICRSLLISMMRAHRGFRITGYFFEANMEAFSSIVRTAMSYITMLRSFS
T1 sequence (Q9VNB5 1-486 partner): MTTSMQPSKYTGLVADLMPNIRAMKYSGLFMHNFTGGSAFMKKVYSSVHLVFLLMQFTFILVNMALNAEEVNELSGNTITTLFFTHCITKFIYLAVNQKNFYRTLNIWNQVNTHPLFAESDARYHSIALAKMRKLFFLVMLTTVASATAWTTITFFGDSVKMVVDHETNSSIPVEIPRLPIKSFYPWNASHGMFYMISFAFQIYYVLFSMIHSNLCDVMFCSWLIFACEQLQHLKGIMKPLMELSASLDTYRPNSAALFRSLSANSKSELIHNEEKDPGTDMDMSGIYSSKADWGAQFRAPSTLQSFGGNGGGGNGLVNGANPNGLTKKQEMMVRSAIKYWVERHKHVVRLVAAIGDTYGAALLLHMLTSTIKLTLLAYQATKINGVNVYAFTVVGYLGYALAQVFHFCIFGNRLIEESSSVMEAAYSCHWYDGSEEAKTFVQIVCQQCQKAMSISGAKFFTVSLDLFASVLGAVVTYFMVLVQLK
Summary of the method: (§1)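 HEK293 lines stably expressing each Drosophila OR with GCaMP6, doxycycline-induced (1 μg/mL) 48 or 72 h. Fluorescence recorded 5 s baseline then 30 s after VOC injection at pH 7.3; ΔF=(FMAX−F0)/F0, normalized to 50 µM VUAA1 response per line, triplicate wells averaged; concentration series 0.01–100 μM.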

Drosophila OR71a = biological target: T2, Drosophila OR71a (Drosophila melanogaster, UniProt Q9VUK5); experiment: Calcium ion fluorescence (GCaMP6) assay, OR71a stable HEK293 cell line; type: cell-based; details: for OR71a Average response (VUAA1-normalized): 50 μM VUAA1 = 1; for OR71a response (VUAA1-normalized) at 1 μM / OR71a response (VUAA1-normalized) at 10 μM / OR71a response (VUAA1-normalized) at 100 μM / Average response: OR71a cell line; for OR71a response (VUAA1-normalized) at 1 μM: VOC concentration 1 μM; for OR71a response (VUAA1-normalized) at 10 μM: VOC concentration 10 μM; for OR71a response (VUAA1-normalized) at 100 μM: VOC concentration 100 μM; for Average response: VUAA1-normalized response, mean of biological replicates; for DF norm AVERAGE OR71a: threshold 0.05, below shown as 0
T2 construct: expressed in transfected cells
T2 sequence (Q9VUK5 1-378): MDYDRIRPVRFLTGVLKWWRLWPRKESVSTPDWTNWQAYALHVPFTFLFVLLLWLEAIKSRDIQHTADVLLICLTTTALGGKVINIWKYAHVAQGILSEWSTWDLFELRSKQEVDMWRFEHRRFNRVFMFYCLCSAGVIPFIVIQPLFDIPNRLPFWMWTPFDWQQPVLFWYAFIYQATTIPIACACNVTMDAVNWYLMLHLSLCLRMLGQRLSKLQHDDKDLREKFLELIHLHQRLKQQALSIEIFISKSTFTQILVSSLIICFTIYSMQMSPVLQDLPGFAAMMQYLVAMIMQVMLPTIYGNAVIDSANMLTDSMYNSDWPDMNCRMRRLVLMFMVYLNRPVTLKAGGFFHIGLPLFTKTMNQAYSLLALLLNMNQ
T2 sequence (Q9VNB5 1-486 partner): T1 sequence (Q9VNB5 1-486 partner)
Summary of the method: as §1

[1] = HEK293, read-out: OR47a Average response (VUAA1-normalized)
[2] = ligand concentration 1 (unit not given)
[3] = ligand concentration 10 (unit not given)
[4] = ligand concentration 100 (unit not given)

SMILES | OR47a response (VUAA1-normalized) at 1 μM (Drosophila OR47a) | OR47a response (VUAA1-normalized) at 10 μM (Drosophila OR47a) | OR47a response (VUAA1-normalized) at 100 μM (Drosophila OR47a) | Average response (Drosophila OR47a; odorant cc. 1 µM) | Average response (Drosophila OR47a; odorant cc. 10 µM) | Average response (Drosophila OR47a; odorant cc. 100 µM) | DF norm AVERAGE OR47a (Drosophila OR47a; [2]) | DF norm AVERAGE OR47a (Drosophila OR47a; [3]) | DF norm AVERAGE OR47a (Drosophila OR47a; [4]) | OR71a response (VUAA1-normalized) at 1 μM (Drosophila OR71a) | OR71a response (VUAA1-normalized) at 10 μM (Drosophila OR71a) | OR71a response (VUAA1-normalized) at 100 μM (Drosophila OR71a) | Average response (Drosophila OR71a; cc. 1 µM) | Average response (Drosophila OR71a; cc. 10 µM) | Average response (Drosophila OR71a; cc. 100 µM) | DF norm AVERAGE OR71a (Drosophila OR71a; [2]) | DF norm AVERAGE OR71a (Drosophila OR71a; [3]) | DF norm AVERAGE OR71a (Drosophila OR71a; [4]) | also measured
COC(=O)c1ccccc1O [methyl salicylate] | 0.11 | 0.00 | 0.14 | 0.11 | 0.00759 | 0.14 | 0.1126 | 0 | 0.1364 | 0.00 | 0.00 | 0.12 | 0.00 | 0.0108 | 0.12 | 0 | 0 | 0.1155 | activation at 1 µM (Drosophila OR47a; [1]): 11%; activation at 10 µM (Drosophila OR47a; [1]): 1%; activation at 100 µM (Drosophila OR47a; [1]): 14%; OR71a Average response (VUAA1-normalized) (Drosophila OR71a; 1 μM VOC): 0.00; OR71a Average response (VUAA1-normalized) (Drosophila OR71a; 10 μM VOC): 0.01; OR71a Average response (VUAA1-normalized) (Drosophila OR71a; 100 μM VOC): 0.12
CCCCCCCCC=O [nonanal] | 0.00 | 0.00 | 0.00 | 0.00 | 0.00 | 0.00 | 0 | 0 | 0 | 0.00 | 0.00 | 0.00 | 0.00 | 0.00 | 0.00 | 0 | 0 | 0 | –
Cc1ccccc1C [o-xylene] | 0.00 | 0.00 | 0.00 | 0.00 | 0.00 | 0.00 | 0 | 0 | 0 | 0.00 | 0.00 | 0.00 | 0.00 | 0.00 | 0.00 | 0 | 0 | 0 | –
Cc1ccc(C(C)C)cc1 [p-cymene] | 0.00 | 0.00 | 0.00 | 0.00 | 0.00 | 0.00 | 0 | 0 | 0 | 0.00 | 0.00 | 0.00 | 0.00 | 0.023 | 0.00 | 0 | 0 | 0 | –
Cc1ccc(C)cc1 [p-xylene] | 0.00 | 0.00 | 0.00 | 0.00 | 0.00 | 0.0271 | 0 | 0 | 0 | 0.00 | 0.06 | 0.00 | 0.00 | 0.06 | 0.00 | 0 | 0.0615 | 0 | –
